Experimental data from patent US12371454B2, “Cyclic peptide compound having Kras inhibitory action” (priority 2019, dated 2025).
Starred links: 1 amine or outer side, 2 acyl side, 3 side chain; linkers in the order of their positions; H or OH if unused. Positions of bridges follow the written chain, without caps; N, C: chain ends. Non-standard residues stand in square brackets, D forms with d. Residues, ends and D or L forms follow the SMILES beside them. *: point of attachment. hPhe(3-Cl-4-CF3) = N[C@@H](CCc1ccc(C(F)(F)F)c(Cl)c1)C(=O)O; NMePhe(4-CF3) = CN[C@@H](Cc1ccc(C(F)(F)F)cc1)C(=O)O; hPhe(4-CF3) = N[C@@H](CCc1ccc(C(F)(F)F)cc1)C(=O)O; NMePhe(4-Cl) = CN[C@@H](Cc1ccc(Cl)cc1)C(=O)O; NMedβ3hAla = C[C@H](CC(=O)[*:2])N(C)[*:1]; NMeGly(cPent) = CN[C@H](C(=O)O)C1CCCC1; Phe(3-I) = N[C@@H](Cc1cccc(I)c1)C(=O)O; Pro(4,4-F2) = O=C(O)[C@@H]1CC(F)(F)CN1; NMe3Pal = CN[C@@H](Cc1cccnc1)C(=O)O; NMeCha = CN[C@@H](CC1CCCCC1)C(=O)O; NMeChg = CN[C@H](C(=O)O)C1CCCCC1; NMeF = CN[C@@H](Cc1ccccc1)C(=O)O; hPhe = N[C@@H](CCc1ccccc1)C(=O)O; NMeD = CN[C@@H](CC(=O)O)C(=O)O; CH2CONHtBu = CC(C)(C)NC(=O)C*; NMeL = CN[C@@H](CC(C)C)C(=O)O; NMeV = CN[C@H](C(=O)O)C(C)C; d(β3hA) = C[C@@H](N)CC(=O)O; NMeS = CN[C@@H](CO)C(=O)O; Morpholide = C1CN(*)CCO1; NMeA = CN[C@@H](C)C(=O)O; NMeAib = CNC(C)(C)C(=O)O; Piperidide = C1CCN(*)CC1; Pyrrolidide = C1CCN(*)C1; Ac5c = NC1(C(=O)O)CCCC1; Aze = O=C(O)[C@@H]1CCN1; Ac4c = NC1(C(=O)O)CCC1; NPrGly = CCCNCC(=O)O; Sar = CNCC(=O)O; OAll = C=CCO*

Biological target: T1, Kras and SOS1 (biotin-tagged human Kras loaded with GDP, His-tagged human SOS1) (Homo sapiens, UniProt P01116, G12D)
T1 construct: made in house; host or cells: E. coli (stated for Kras only)
T1 sequence (P01116 1-188 isoform P01116-2 G12D): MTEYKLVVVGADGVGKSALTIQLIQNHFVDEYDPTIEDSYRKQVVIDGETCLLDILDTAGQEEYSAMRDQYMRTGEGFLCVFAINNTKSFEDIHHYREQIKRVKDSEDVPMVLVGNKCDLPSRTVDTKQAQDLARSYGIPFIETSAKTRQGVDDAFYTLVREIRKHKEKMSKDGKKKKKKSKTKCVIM
Assay: Protein-protein interaction inhibition between Kras and SOS1 (KrasGl2D-SOS PPI) using AlphaScreen
Type: binding
Conditions: AlphaScreen; biotin-tagged human Kras loaded with GDP, His-tagged human SOS1; read-out: KRAS G12D-SOS PPI IC50
How it was run: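 Read-out is acceptor-bead light at 520-620 nm, arising when 680 nm-irradiated nickel donor beads pass singlet oxygen to streptavidin acceptors. The bead pair links His-tagged SOS1 with biotin-tagged, GDP-bound Kras from E. coli.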

CC[C@H](C)[C@@H]1NC(=O)[C@H](CC(C)C)N(C)C(=O)C[C@@H](C)NC(=O)[C@H](C(C)C)N(C)C(=O)C2(CCCC2)NC(=O)[C@@H]2CCCN2C(=O)[C@H](CCc2ccc(C(F)(F)F)c(Cl)c2)NC(=O)CN(C)C(=O)[C@H](CC2CCCCC2)N(C)C(=O)[C@@H]2CCN2C(=O)[C@H](CC2CCCCC2)N(C)C1=O [Compound 1581] (cyclo([Ac5c][NMeV][d(β3hA)][NMeL]I[NMeCha][Aze][NMeCha][Sar][hPhe(3-Cl-4-CF3)]P)) and CCCN1CC(=O)N(C)[C@@H](CC2CCCCC2)C(=O)N(C)CC(=O)N[C@@H](CCc2ccc(C(F)(F)F)c(Cl)c2)C(=O)N2CCC[C@H]2C(=O)NC2(CCCC2)C(=O)N(C)[C@@H](C(C)C)C(=O)N[C@H](C)CC(=O)N(C)[C@@H](CC(C)C)C(=O)N[C@@H]([C@@H](C)CC)C(=O)N(C)CC1=O [Compound 405] (cyclo([Ac5c][NMeV][d(β3hA)][NMeL]I[Sar][NPrGly][NMeCha][Sar][hPhe(3-Cl-4-CF3)]P)) are within 1.5-fold of each other in IC50: 0.23 µM for the first, 0.27 µM for the second.

First: CC[C@H](C)[C@@H]1NC(=O)[C@H](C)N(C)C(=O)C[C@@H](C(=O)N2CCOCC2)N(C)C(=O)[C@H](C2CCCCC2)N(C)C(=O)C2(CCCC2)NC(=O)[C@H](Cc2cccnc2)N(C)C(=O)[C@H](CCc2ccc(C(F)(F)F)c(Cl)c2)NC(=O)CN(C)C(=O)[C@H](CC2CCCCC2)N(C)C(=O)[C@@H]2CCN2C(=O)CN(C)C1=O [Compound 1703] ([NMeA]I[Sar][Aze][NMeCha][Sar][hPhe(3-Cl-4-CF3)][NMe3Pal][Ac5c][NMeChg][NMeD]-Morpholide; lactam N-11)
Second: CC[C@H](C)[C@@H]1NC(=O)[C@H](CC(C)C)N(C)C(=O)C[C@@H](C)N(C)C(=O)[C@H](C2CCCC2)N(C)C(=O)C2(CCC2)NC(=O)[C@@H]2CC(F)(F)CN2C(=O)[C@H](CCc2ccc(C(F)(F)F)c(Cl)c2)NC(=O)CN(C)C(=O)[C@H](Cc2ccc(C(F)(F)F)cc2)N(C)C(=O)CN(C)C(=O)CN(C)C1=O [Compound 62] (cyclo([Ac4c][NMeGly(cPent)][NMedβ3hAla][NMeL]I[Sar][Sar][NMePhe(4-CF3)][Sar][hPhe(3-Cl-4-CF3)][Pro(4,4-F2)]))
The IC50 of the first is 9.3-fold lower: 0.00041 µM for the first, 0.0038 µM for the second.

CC[C@H](C)[C@@H]1NC(=O)[C@H](CC(C)C)N(C)C(=O)C[C@@H](C(=O)N2CCCCC2)N(C)C(=O)[C@H](CC(C)C)NC(=O)C(C)(C)N(C)C(=O)[C@H](CCc2ccccc2)NC(=O)[C@H](Cc2cccc(I)c2)NC(=O)CN(C)C(=O)[C@H](CC2CCCCC2)N(C)C(=O)[C@@H]2CCN2C(=O)CN(C)C1=O [Compound 931] ([NMeL]I[Sar][Aze][NMeCha][Sar][Phe(3-I)][hPhe][NMeAib]L[NMeD]-Piperidide; lactam N-11) and CC[C@H](C)[C@@H]1NC(=O)[C@H](C)N(C)C(=O)C[C@@H](C(=O)N2CCCCC2)NC(=O)[C@H](C(C)C)N(C)C(=O)[C@H](Cc2ccccc2)N(C)C(=O)[C@H](CC(C)C)N(C)C(=O)[C@H](CCc2ccc(C(F)(F)F)cc2)NC(=O)CN(C)C(=O)[C@H](Cc2ccc(Cl)cc2)N(C)C(=O)CN(C)C(=O)CN(C)C1=O [Compound 752] ([NMeA]I[Sar][Sar][NMePhe(4-Cl)][Sar][hPhe(4-CF3)][NMeL][NMeF][NMeV]D-Piperidide; lactam N-11) are within 1.5-fold of each other in IC50: 0.27 µM for the first, 0.2 µM for the second.

Going from CC[C@H](C)[C@@H]1NC(=O)[C@H](C)N(C)C(=O)C[C@@H](C(=O)N2CCCC2)NC(=O)[C@H](CC(C)C)N(C)C(=O)[C@H](COCC(=O)NC(C)(C)C)N(C)C(=O)[C@H](CC(C)C)NC(=O)[C@H](CCc2ccc(C(F)(F)F)cc2)NC(=O)CN(C)C(=O)[C@H](Cc2ccc(Cl)cc2)N(C)C(=O)CN(C)C(=O)CN(C)C1=O [Compound 889] ([NMeA]I[Sar][Sar][NMePhe(4-Cl)][Sar][hPhe(4-CF3)]L[NMeS](CH2CONHtBu)[NMeL]D-Pyrrolidide; lactam N-11) to C=CCOC(=O)CC[C@@H]1NC(=O)[C@H](CCc2ccc(C(F)(F)F)cc2)NC(=O)CN(C)C(=O)[C@H](Cc2ccc(Cl)cc2)N(C)C(=O)CN(C)C(=O)CN(C)C(=O)[C@H]([C@@H](C)CC)NC(=O)[C@H](C)N(C)C(=O)C[C@@H](C(=O)N2CCCC2)NC(=O)[C@H](CC(C)C)N(C)C(=O)[C@H](Cc2ccccc2)N(C)C1=O [Compound 306] ([NMeA]I[Sar][Sar][NMePhe(4-Cl)][Sar][hPhe(4-CF3)]E(OAll)[NMeF][NMeL]D-Pyrrolidide; lactam N-11), the IC50 falls from 0.07 µM to 0.044 µM (1.6-fold).

In the case of CC[C@H](C)[C@@H]1NC(=O)[C@H](C)N(C)C(=O)C[C@@H](C)NC(=O)[C@H](CC(C)C)N(C)C(=O)[C@H](Cc2ccccc2)N(C)C(=O)[C@@H]2CC(F)(F)CN2C(=O)[C@H](CCc2ccc(C(F)(F)F)cc2)NC(=O)CN(C)C(=O)[C@H](Cc2ccc(Cl)cc2)N(C)C(=O)CN(C)C(=O)CN(C)C1=O [Compound 870] (cyclo(I[Sar][Sar][NMePhe(4-Cl)][Sar][hPhe(4-CF3)][Pro(4,4-F2)][NMeF][NMeL][d(β3hA)][NMeA])), the IC50 is reported as 0.015 µM.
